Data reported in patent publication US20190308956A1, “PIPERAZINE DERIVATIVES AS ANTIVIRAL AGENTS WITH INCREASED THERAPEUTIC ACTIVITY” (SERVICIO ANDALUZ DE SALUD, priority 2016, published 2019).

Key:
HAdV5-GFP = test: Plaque assay, HAdV5-GFP in 293β5 cells; format: cell-based; details: read-out: Percentage of plaque formation inhibition, HAdV5-GFP, 10 μM, 293β5 cell line
Experimental: 1.5. Plaque assay. For low MOI infections, active compounds were further evaluated in a plaque assay. 293β5 cells were seeded in 6-well plates at 4×10^5 cells per well in duplicate for each condition. When cells reached 80-90% confluency, they were infected with HAdV5-GFP or HAdV16-GFP (0.06 vp/cell) and rocked for 2 h at 37° C. The inoculum was removed and the cells were washed once with PBS. The cells were then carefully overlaid with 4 ml/well of equal parts of 1.6% […] Difco Agar Noble (Becton, Dickinson & Co, Sparks, MD) and 2× EMEM (BioWhittaker) supplemented with 2x penicillin/streptomycin, 2× L-glutamine and 10% FBS. The mixture also contained compound in concentrations ranging from 5 to 1 μM. Following incubation for 7 days at 37° C., plates were scanned with a Typhoon 9410 imager (GE Healthcare Life Sciences), and plaques were quantified with ImageJ.43
For the plaque assay 293β5 cells were infected with HAdV5-GFP (in the presence of compound at 10 μM) (Table 2). From this generation of compounds, our primary screening identified 4 compounds (12, 13, 22 and 25) that inhibited HAdV5-GFP plaque formation >90% compared to a control with the same volume of DMSO.

[1] = Cytotoxicity assay (alamarBlue cell viability); format: cell-based, Human; details: human, A549 cells
Experimental: 1.4. Cytotoxicity assay. The cytotoxicity of the compounds was measured using the AlarmBlue cell viability assay (Invitrogen) according to the manufacturer's instructions. Actively dividing A549 cells were incubated with compounds for 48 h. After the incubation the alamarBlue reagent was added to the cells ( 1/10th alamarBlue reagent in culture medium) for an extra 4 h. The 50% cell cytotoxic concentration (CC50) of the molecules was calculated according to Cheng et al.42 The selectivity index (SI) was evaluated as the ratio of CC50 to IC50, where the IC50 is defined as the concentration of compound that inhibits HAdV infection by 50%.

| Compound | melting point [°C] | inhibition at 10 µM (HAdV5-GFP) [%] | CC50 at 48 h ([1]; 48 h) [µM] | CC50 at 48 h [1] [µM] |
| --- | --- | --- | --- | --- |
| CC1CN(C(=O)OC(C)(C)C)CCN1C(=O)c1ccc([N+](=O)[O-])cc1 (centres unmarked) [Compound 10, 4-tert-Butoxycarbonyl-2-methyl-1-(4-nitrobenzoyl)piperazine] | 115 to 117 | 33.6 ± 2.17 |  |  |
| COc1ccc(C(=O)N2CCN(C(=O)OC(C)(C)C)CC2C)cc1 (centres unmarked) [Compound 11, 4-tert-Butoxycarbonyl-1-(4-methoxybenzoyl)-2-methylpiperazine] | 84 to 87 | 33.8 ± 4.02 |  |  |
| CC1CN(C(=O)OC(C)(C)C)CCN1C(=S)Nc1ccc([N+](=O)[O-])cc1 (centres unmarked) [Compound 12, 4-tert-Butoxycarbonyl-2-methyl-1-[(4-nitrophenyl)aminothiocarbonyl]piperazine] |  | > 90 | 26.3 ± 1.59 |  |
| CC1CN(C(=O)OC(C)(C)C)CCN1C(=O)Nc1ccc([N+](=O)[O-])cc1 (centres unmarked) [Compound 13, 4-tert-Butoxycarbonyl-2-methyl-1-[(4-nitrophenyl)aminocarbonyl]piperazine] |  | > 90 | 143 ± 3.29 |  |
| CC1CN(C(=O)C(C)(C)C)CCN1C(=O)c1ccc([N+](=O)[O-])cc1 (centres unmarked) [Compound 15, 2-Methyl-1-(4-nitrobenzoyl)-4-pivaloylpiperazine] | 143 to 145 | 23.1 ± 3.71 |  |  |
| COc1ccc(C(=O)N2CCN(C(=O)C(C)(C)C)CC2C)cc1 (centres unmarked) [Compound 16, 1-(4-Methoxybenzoyl)-2-methyl-4-pivaloylpiperazine] | 96 to 97 | 0 |  |  |
| CC1CN(C(=O)c2ccccc2)CCN1C(=O)c1ccc([N+](=O)[O-])cc1 (centres unmarked) [Compound 20, 4-Benzoyl-2-methyl-1-(4-nitrobenzoyl)piperazine] | 103 to 105 | 0 |  |  |
| CC1CN(C(=O)c2ccccc2)CCN1C(=S)Nc1ccc([N+](=O)[O-])cc1 (centres unmarked) [Compound 22, 4-Benzoyl-2-methyl-1-[(4-nitrophenyl)aminothiocarbonyl]piperazine] |  | > 90 | 31.4 ± 2.82 |  |
| CC1CN(C(=O)c2cc3ccccc3o2)CCN1C(=O)Nc1ccc([N+](=O)[O-])cc1 (centres unmarked) [Compound 25, 4-(Benzofuran-2-carbonyl)-2-methyl-1-[(4-nitrophenyl)aminocarbonyl]piperazine] |  | > 90 | 51.1 ± 7.35 |  |
| COc1ccc(NC(=O)N2CCN(C(=O)c3cc4ccccc4o3)CC2C)cc1 (centres unmarked) [Compound 26, 4-(Benzofuran-2-carbonyl)-1-[(4-methoxyphenyl)aminocarbonyl]-2-methylpiperazine] | 170 to 172 | 33.6 ± 14.7 |  |  |
| CC1CN(C(=O)OC(C)(C)C)CCN1C(=O)Nc1ccc(Cl)cc1 (centres unmarked) [Compound 27, 4-tert-Butoxycarbonyl-1-[(4-chlorophenyl)aminocarbonyl]-2-methylpiperazine] |  | 62.03 ± 0.26 | 150 ± 1.01 |  |
| CC1CN(C(=O)OC(C)(C)C)CCN1C(=O)Nc1ccc(C(F)(F)F)cc1 (centres unmarked) [Compound 28, 4-tert-Butoxycarbonyl-2-methyl-1-[(4-trifluoromethylphenyl)aminocarbonyl]piperazine] |  | 30.6 ± 14.6 | 137 ± 24.3 |  |
| CC1CN(C(=O)OC(C)(C)C)CCN1C(=O)Nc1ccccc1[N+](=O)[O-] (centres unmarked) [Compound 29, 4-tert-Butoxycarbonyl-2-methyl-1-[(2-nitrophenyl)aminocarbonyl]piperazine] | 199 to 201 | 50 ± 2.75 |  |  |
| CC1CN(C(=O)OC(C)(C)C)CCN1C(=O)Nc1cc(C(F)(F)F)ccc1Cl (centres unmarked) [Compound 30, 4-tert-Butoxycarbonyl-1-[(2-chloro-5-trifluoromethylphenyl)aminocarbonyl]-2-methylpiperazine] | 98 to 100 | 91 to 100 | 63.5 ± 8.22 |  |
| CC1CN(C(=O)OC(C)(C)C)CCN1C(=O)Nc1ccc(Cl)c(C(F)(F)F)c1 (centres unmarked) [Compound 31, 4-tert-Butoxycarbonyl-1-[(4-chloro-3-trifluoromethylphenyl)aminocarbonyl]-2-methylpiperazine] | 157 to 159 | 91 to 100 | 20.8 ± 0.64 |  |
| CC1CN(C(=O)c2cc3ccccc3o2)CCN1C(=O)Nc1ccc(Cl)cc1 (centres unmarked) [Compound 32, 4-(Benzofuran-2-carbonyl)-1-[(4-chlorophenyl)aminocarbonyl]-2-methylpiperazine] |  | 6.69 ± 11.1 | 144 ± 20.8 |  |

| Compound | melting point [°C] | inhibition at 10 µM (HAdV5-GFP) [%] | CC50 at 48 h ([1]; 48 h) [µM] | CC50 at 48 h [1] [µM] |
| --- | --- | --- | --- | --- |
| CC1CN(C(=O)c2cc3ccccc3o2)CCN1C(=O)Nc1ccc(C(F)(F)F)cc1 (centres unmarked) [Compound 33, 4-(Benzofuran-2-carbonyl)-2-methyl-1-[(4-trifluoromethylphenyl)aminocarbonyl]piperazine] |  | 91 to 100 | 82.2 ± 24.3 |  |
| CC1CN(C(=O)c2cc3ccccc3o2)CCN1C(=O)Nc1ccc(C#N)cc1 (centres unmarked) [Compound 34, 4-(Benzofuran-2-carbonyl)-1-[(4-cyanophenyl)aminocarbonyl]-2-methylpiperazine] |  | 83.2 ± 1.55 | 118 ± 30.2 |  |
| CC1CN(C(=O)c2cc3ccccc3o2)CCN1C(=O)Nc1ccccc1[N+](=O)[O-] (centres unmarked) [Compound 36, 4-(Benzofuran-2-carbonyl)-2-methyl-1-[(2-nitrophenyl)aminocarbonyl]piperazine] |  | 91 to 100 | 203 ± 4.09 | > 200 |
| CC1CN(C(=O)c2cc3ccccc3o2)CCN1C(=O)Nc1ccccc1F (centres unmarked) [Compound 37, 4-(Benzofuran-2-carbonyl)-1-[(2-fluorophenyl)aminocarbonyl]-2-methylpiperazine] | 127 to 129 | 50.9 ± 4.13 |  |  |
| CC1CN(C(=O)c2cc3ccccc3o2)CCN1C(=O)Nc1ccc(F)cc1F (centres unmarked) [Compound 39, 4-(Benzofuran-2-carbonyl)-1-[(2,4-difluorophenyl)aminocarbonyl]-2-methylpiperazine] | 163 to 165 | 34.2 ± 13.6 |  |  |
| CC(C)(C)OC(=O)N1CCN(C(=O)Nc2ccc(Cl)cc2)C(c2ccccc2)C1 (centres unmarked) [Compound 47, 4-tert-Butoxycarbonyl-1-[(4-chlorophenyl)aminocarbonyl]-2-phenylpiperazine] |  | 86.3 ± 6.35 | 17.1 ± 4.24 |  |
| CC(C)(C)OC(=O)N1CCN(C(=O)Nc2ccc(C(F)(F)F)cc2)C(c2ccccc2)C1 (centres unmarked) [Compound 48, 4-tert-Butoxycarbonyl-2-phenyl-1-[(4-trifluoromethylphenyl)aminocarbonyl]piperazine] |  | 71.51 ± 0.11 | 42.1 ± 28.6 |  |
| CC(C)(C)OC(=O)N1CCN(C(=O)Nc2ccc(F)cc2)C(c2ccccc2)C1 (centres unmarked) [Compound 49, 4-tert-Butoxycarbonyl-1-[(4-fluorophenyl)aminocarbonyl]-2-phenylpiperazine] |  | 75.84 ± 0.49 | 110 ± 8.09 |  |
| CC(C)(C)OC(=O)N1CCN(C(=O)Nc2ccc(C#N)cc2)C(c2ccccc2)C1 (centres unmarked) [Compound 50, 4-tert-Butoxycarbonyl-1-[(4-cyanophenyl)aminocarbonyl]-2-phenylpiperazine] |  | 67.2 ± 16.5 | 91.3 ± 61.5 |  |
| CC(C)(C)OC(=O)N1CCN(C(=O)Nc2ccccc2[N+](=O)[O-])C(c2ccccc2)C1 (centres unmarked) [Compound 51, 4-tert-Butoxycarbonyl-1-[(2-nitrophenyl)aminocarbonyl]-2-phenylpiperazine] |  | 100 | 82.2 ± 9.06 |  |
| CC(C)(C)OC(=O)N1CCN(C(=O)Nc2cc(C(F)(F)F)ccc2Cl)C(c2ccccc2)C1 (centres unmarked) [Compound 52, 4-tert-Butoxycarbonyl-1-[(2-chloro-5-trifluoromethylphenyl)aminocarbonyl]-2-phenylpiperazine] |  | 100 | 93.36 ± 0.73 |  |
| CC(C)(C)OC(=O)N1CCN(C(=O)Nc2ccc(Cl)c(C(F)(F)F)c2)C(c2ccccc2)C1 (centres unmarked) [Compound 53, 4-tert-Butoxycarbonyl-1-[(4-chloro-3-trifluoromethylphenyl)aminocarbonyl]-2-phenylpiperazine] |  | 100 | 27.5 |  |
| COc1ccc(NC(=O)N2CCN(C(=O)OC(C)(C)C)CC2c2ccccc2)cc1 (centres unmarked) [Compound 54, 4-tert-Butoxycarbonyl-1-[(4-methoxyphenyl)aminocarbonyl]-2-phenylpiperazine] |  | 78.9 ± 1.57 | 133 ± 58.8 |  |
| Cc1ccc(NC(=O)N2CCN(C(=O)OC(C)(C)C)CC2c2ccccc2)cc1 (centres unmarked) [Compound 55, 4-tert-Butoxycarbonyl-1-[(4-methylphenyl)aminocarbonyl]-2-phenylpiperazine] |  | 63.02 ± 0.2 | 165 ± 17.4 |  |
| CC(C)(C)C(=O)N1CCN(C(=O)Nc2ccc([N+](=O)[O-])cc2)C(c2ccccc2)C1 (centres unmarked) [Compound 56, 1-[(4-Nitrophenyl)aminocarbonyl]-2-phenyl-4-pivaloylpiperazine] |  | 43.8 ± 13.2 | 102 ± 8.38 |  |
